Patent US9901636B2, “Conjugate of a photosensitiser and chitosan and uses thereof” (PCI BIOTECH AS, priority 2012, dated 2018)

How the values were obtained:
[1] = Fluorescence quantum yield, steady-state comparative method vs anthracene; type: physicochemical; settings: DMSO at room temperature
Protocol: UV-Vis measurements were recorded on a Perkin-Elmer Lambda 25 UV-Vis. spectrometer equipped with a Peltier Temperature Programmer. Fluorescence emission spectra were obtained using a SPEX FluoroMax spectrometer, using a cell with spectral range 170-2200 nm (Spectrocell Corporation, Oreland, Pa., USA). Absorption spectra were recorded at 20° C. and fluorescence emission spectra were recorded at ambient temperature, using quartz cuvette with a 10 mm path length. All the fluorescence spectra were recorded with constant slit widths, 1 nm for excitation and 1 nm for emission and fluorescence spectra were averaged over three scans for quantum yield study. However, for FIG. 5 (III) fluorescence spectra were obtained with slit widths 3 nm for excitation and 3 nm for emission.
Fluorescence quantum yields of compounds 3, 5, 16A-19B (all excited at Δex.=λmax=419 nm) were determined relative to a dilute solution of standard anthracene (φF=0.27, λex=365.5 nm) in absolute ethanol by using the steady-state comparative method. using the following equation: φX=φST(GradX/GradST)(ηS^2,ηST^2) where, the subscripts ST and X denote standard and test respectively, φ is the fluorescence quantum yield, Grad the gradient from the plot of integrated fluorescence intensity versus absorbance, and η the refractive index of the solvent.

[2] = Partitioning in aqueous:CHCl3 two-phase system; type: physicochemical; settings: two-phase H2O/CHCl3 system (FIG. 6)
Excerpt: (A) TPP(p-NH2)13 (B) TPPNH-Pip 5 (C) TPPp0.25-CS-TMA0.75 17A (D) TPPp0.25-CS-MP0.75 19A. Aqueous phases are shown on top.
In the ^1H NMR spectra of final compound TPPp0.1-CS-MP0.9 18A all peaks of the chitosan backbone along with the 1-methyl piperazine peaks can be clearly identified; however there is no observable NMR signal of the TPP moiety (FIG. 5E). […] In d6-DMSO the TPP peaks could be observed but in this case the chitosan backbone peaks were broadened and not clearly identifiable. […] The TPPp0.1-CS-MP0.9 18A has a dark red color confirming the presence of the PS.

[3] = Bhaumik et al., excited at 418 nm in DMF, TPP as standard; cited from earlier work
[4] = Table 2, excited at 419 nm, standard anthracene
[5] = Table 4, λabs 420 nm, λem 653 nm

Compound: O=C(CN1CCNCC1)Nc1ccc(-c2c3nc(c(-c4ccccc4)c4ccc([nH]4)c(-c4ccccc4)c4nc(c(-c5ccccc5)c5ccc2[nH]5)C=C4)C=C3)cc1 [Compound 5, 5-(4α-Piperazineacetylamidophenyl)-10,15,20-triphenylporphyrin]
- Quantum Yield (φF) [1, 4]: 0.0036
- Partitioning between aqueous and organic phase [2]: did not partition into the aqueous phase

Compound: Nc1ccc(-c2c3nc(c(-c4ccccc4)c4ccc([nH]4)c(-c4ccccc4)c4nc(c(-c5ccccc5)c5ccc2[nH]5)C=C4)C=C3)cc1 [Compound 3, 5-(4-Aminophenyl)-10,15,20-triphenylporphyrin, reference compound]
- Quantum Yield (φF) [1, 4]: 0.0002
- Fluorescence quantum yield (φF), literature value [3]: 0.05
- Partitioning between aqueous and organic phase [2]: did not partition into the aqueous phase

Compound: 5-(4-Carboxyphenyl)-10,15,20-triphenylchlorin [Compound 26]
- Quantum Yield (φF) [1, 5]: 0.01331

Compound: Nc1ccc(-c2c3nc(c(-c4ccccc4)c4ccc([nH]4)c(-c4ccccc4)c4nc(c(-c5ccccc5)c5ccc2[nH]5)C=C4)CC3)cc1 [Compound 20, 5-(4-Aminophenyl)-10,15,20-triphenylchlorin]
- Quantum Yield (φF) [1, 5]: 0.00246
